Where two headings read alike, the source gives them in different places.
Columns and labels:
[1] = test system: CD69 expression on CD19+ B cells in human whole blood; assay: In Vitro whole blood CD69 Assay; format: cell-based; conditions: B-cell
Experimental: In Vitro whole blood CD69 Assay
Human heparinized venous blood from health donors was aliquoted into 96-well plate and “spiked” with serial dilutions of formula I compounds in DMSO or with DMSO without drug. The final concentration of DMSO in all wells was 0.1%. The plate was incubated at 37° C. for 30 min. Drug-containing samples were stimulated with […] mouse anti-human IgD-dextran (1A62) or […] polyclonal rabbit F(ab′)2 anti-human IgD. Phosphate-buffered saline (PBS) was added to the negative control unstimulated sample and the plates were incubated overnight (18 to 22 hours) at 37° C. Cells were stained with fluorochrome-conjugated anti-CD19 and anti-CD69 antibodies. Lyse/fix solution was used to remove red blood cells by hypotonic lysis and to fix the remaining cells, which were then analyzed by flow cytometry. CD19+ B cells were gated and analyzed for CD69 expression. The percentage of B cells expressing CD69 was plotted versus the log 10 of the concentration of the drug and the best-fit curves (variable Hill slope) were generated to obtain the IC50 value.

[2] = molecular target: T1, active BTK enzyme (Upstate 14-552) (Homo sapiens, UniProt Q06187); assay: In Vitro BTK Kinase Assay: Btk-PolyGAT-LS Assay; format: biochemical; conditions: ATP 10 μM, polyGAT 100 nM, BTK 0.25 nM, 30 minutes, TRF readout
T1 construct: purchased Upstate 14-552
Experimental: In Vitro BTK Kinase Assay: Btk-PolyGAT-LS Assay The purpose of the BTK in vitro assay is to determine compound potency against BTK through the measurement of IC50. Compound inhibition is measured after monitoring the amount of phosphorylation of a fluorescein-labeled polyGAT peptide (Invitrogen PV3611) in the presence of active BTK enzyme (Upstate 14-552), ATP, and inhibitor. The BTK kinase reaction was done in a black 96 well plate (costar 3694). For a typical assay, a 24 μL aliquot of a ATP/peptide master mix (final concentration; ATP 10 μM, polyGAT 100 nM) in kinase buffer (10 mM Tris-HCl pH 7.5, 10 mM MgCl2, 200 μM […], 5 mM DTT, 0.01% Triton X-100, and 0.2 mg/ml casein) is added to each well. Next, […] of a 4-fold, 40× compound titration in 100% DMSO solvent is added, followed by adding 15 μL of BTK enzyme mix in 1× kinase buffer (with a final concentration of 0.25 nM). The assay is incubated for 30 minutes before being stopped with 28 μL of a 50 mM EDTA solution. Aliquots (5 μL) of the kinase reaction are transferred to a low volume white 384 well plate (Coming 3674), and 5 μL of a 2× detection buffer (Invitrogen PV3574, with 4 nM Tb-PY20 antibody, Invitrogen PV3552) is added. The plate is covered and incubated for 45 minutes at room temperature. Time resolved fluorescence (TRF) on Molecular Devices M5 (332 nm excitation; 488 nm emission; 518 nm fluorescein emission) is measured. IC50 values are calculated using a four parameter fit with 100% enzyme activity determined from the DMSO control and 0% activity from the EDTA control.

[3] = human heparinized whole blood, anti-human IgD stimulation overnight, percentage of CD19+ B cells expressing CD69, flow cytometry, read-out: IC50

T1 sequence (Q06187 whole entry): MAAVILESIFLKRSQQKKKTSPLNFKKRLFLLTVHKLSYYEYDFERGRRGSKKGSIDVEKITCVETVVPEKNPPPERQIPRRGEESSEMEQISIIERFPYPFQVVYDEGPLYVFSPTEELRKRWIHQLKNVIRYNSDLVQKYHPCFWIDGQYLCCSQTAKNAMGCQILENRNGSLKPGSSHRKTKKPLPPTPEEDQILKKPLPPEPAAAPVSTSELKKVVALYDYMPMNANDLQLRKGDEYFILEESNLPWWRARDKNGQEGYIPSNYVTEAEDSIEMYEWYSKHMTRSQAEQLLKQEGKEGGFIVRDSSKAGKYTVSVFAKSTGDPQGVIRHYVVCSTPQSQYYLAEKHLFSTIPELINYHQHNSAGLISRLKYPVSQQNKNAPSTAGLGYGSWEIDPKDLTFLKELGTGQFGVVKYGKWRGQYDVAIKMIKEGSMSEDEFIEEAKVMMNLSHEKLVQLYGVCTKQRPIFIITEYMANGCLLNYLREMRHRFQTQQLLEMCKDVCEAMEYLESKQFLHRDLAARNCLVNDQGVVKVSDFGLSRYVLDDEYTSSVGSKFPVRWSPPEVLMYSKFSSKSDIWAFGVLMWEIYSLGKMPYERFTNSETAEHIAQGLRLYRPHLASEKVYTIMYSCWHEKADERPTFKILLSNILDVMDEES

Row | Compound | IC50 [1, 3] [nM] | IC50 [2] [nM] | IC50 ([1]; Homo sapiens) [nM]
1 | C=CC(=O)N(C)[C@H]1CCCN(c2cnccc2-c2ccc(CNC(=O)c3cn(C(C)(C)C)nn3)c(C)c2)C1 [Example 15, (S)-1-(tert-butyl)-N-(2-methyl-4-(3-(3-(N-methylacrylamido)piperidin-1-yl)pyridin-4-yl)benzyl)-1H-1,2,3-triazole-4-carboxamide] | > 1000 | > 10 | 
2 | C=CC(=O)N1CCC[C@@H](c2cnccc2-c2ccc(CNC(=O)c3noc(C4(C)CC4)n3)c(C)c2)C1 (single isomer, unassigned) [Example 28] | > 1000 | > 10 | 
3 | C=CC(=O)N1CCCC(c2cnccc2-c2ccc(CNC(=O)c3cn(C(C)(C)C)nn3)c(C)c2)C1 (stereo not shown) [Example 23, N-(4-(3-(1-acryloylpiperidin-3-yl)pyridin-4-yl)-2-methylbenzyl)-1-(tert-butyl)-1H-1,2,3-triazole-4-carboxamide] | > 1000 | 1 to 10 | 
4 | Cc1cc(-c2ccncc2N2CCN(C(=O)/C=C/CN(C)C)CC2)ccc1CNC(=O)c1noc(C(C)(C)C)c1F [Example 95, (E)-5-(tert-butyl)-N-(4-(3-(4-(4-(dimethylamino)but-2-enoyl)piperazin-1-yl)pyridin-4-yl)-2-methylbenzyl)-4-fluoroisoxazole-3-carboxamide] | 100 to 1000 | 1 to 10 | 
5 | C=CC(=O)N(C)C1CCCN(c2cnccc2-c2ccc(CNC(=O)c3cc(C(C)(C)C)on3)c(C)c2)C1 (stereo not shown) [Example 14, 5-(tert-butyl)-N-(2-methyl-4-(3-(3-(N-methylacrylamido)piperidin-1-yl)pyridin-4-yl)benzyl)isoxazole-3-carboxamide] | 100 to 1000 | ≤ 1 | 
6 | Cc1cc(-c2ccncc2N2CCN(C(=O)/C=C/CN(C)C)CC2)ccc1CN(C)C(=O)c1noc(C(C)(C)C)n1 [Example 71, (E)-5-(tert-butyl)-N-(4-(3-(4-(4-(dimethylamino)but-2-enoyl)piperazin-1-yl)pyridin-4-yl)-2-methylbenzyl)-N-methyl-1,2,4-oxadiazole-3-carboxamide] | 100 to 1000 | 1 to 10 | 
7 | C=CC(=O)N(C)C1CCCN(c2cncnc2-c2ccc(CNC(=O)c3cn(C(C)(C)C)nn3)c(C)c2)C1 (stereo not shown) [Example 8, 1-(tert-butyl)-N-(2-methyl-4-(5-(3-(N-methylacrylamido)piperidin-1-yl)pyrimidin-4-yl)benzyl)-1H-1,2,3-triazole-4-carboxamide] | < 100 | ≤ 1 | 
8 | C=CC(=O)N1CCC[C@H](c2cnccc2-c2ccc(CNC(=O)c3cc(C(C)(C)C)on3)c(C)c2)C1 (single isomer, unassigned) [Example 33] | > 1000 | 1 to 10 | 
9 | C=CC(=O)N(C)C1CCCN(c2cnccc2-c2ccc(CNC(=O)c3ccc(C(F)(F)F)nc3)c(C)c2)C1 (stereo not shown) [Example 41, N-(2-methyl-4-(3-(3-(N-methylacrylamido)piperidin-1-yl)pyridin-4-yl)benzyl)-6-(trifluoromethyl)nicotinamide] | > 1000 | 1 to 10 | 
10 | C=CC(=O)N(C)C1CCCN(c2cnccc2-c2ccc(CNC(=O)c3nc(C(C)(C)C)co3)c(C)c2)C1 (stereo not shown) [Example 39, 4-(tert-butyl)-N-(2-methyl-4-(3-(3-(N-methylacrylamido)piperidin-1-yl)pyridin-4-yl)benzyl)oxazole-2-carboxamide] |  | ≤ 1 | 100 to 1000

Continued, in another order:

Row | IC50 [1, 3] [nM] | IC50 [2] [nM] | Compound | IC50 ([1]; Homo sapiens) [nM]
11 | < 100 | ≤ 1 | Cc1cc(-c2ncncc2N2CCN(C(=O)/C=C/CN(C)C)CC2)ccc1CNC(=O)c1nc(C2(C)CC2)no1 [Example 85, (E)-N-(4-(5-(4-(4-(dimethylamino)but-2-enoyl)piperazin-1-yl)pyrimidin-4-yl)-2-methylbenzyl)-3-(1-methylcyclopropyl)-1,2,4-oxadiazole-5-carboxamide] | 
12 | > 1000 | ≤ 1 | C=CC(=O)N(C1CC1)[C@@H]1CCCN(c2cnccc2-c2ccc(CNC(=O)c3cn(C(C)(C)C)nn3)c(C)c2)C1 (stereo in doubt) [Example 17, 1-(tert-butyl)-N-(4-(3-(3-(N-cyclopropylacrylamido)piperidin-1-yl)pyridin-4-yl)-2-methylbenzyl)-1H-1,2,3-triazole-4-carboxamide] | 
13 | 100 to 1000 | 1 to 10 | C=CC(=O)N1CCCC(c2cnccc2-c2ccc(CNC(=O)c3cc(C(C)(C)C)on3)c(C)c2)C1 (stereo not shown) [Example 32, N-(4-(3-(1-acryloylpiperidin-3-yl)pyridin-4-yl)-2-methylbenzyl)-5-(tert-butyl)isoxazole-3-carboxamide] | 
14 | 100 to 1000 | ≤ 1 | C=CC(=O)N(C)[C@@H]1CCCN(c2cncc(F)c2-c2ccc(CNC(=O)c3cn(C(C)(C)C)nn3)c(C)c2)C1 [Example 56, 1-tert-butyl-N-[[4-[3-fluoro-5-[(3R)-3-[methyl(prop-2-enoyl)amino]-1-piperidyl]-4-pyridyl]-2-methyl-phenyl]methyl]triazole-4-carboxamide] | 
15 | 100 to 1000 | ≤ 1 | C=CC(=O)N(C)C1CCCN(c2cnccc2-c2ccc(CNC(=O)c3cn(C(C)(C)C)nn3)c(C)c2)C1 (stereo not shown) [Example 1, 1-(tert-butyl)-N-(2-methyl-4-(3-(3-(N-methylacrylamido)piperidin-1-yl)pyridin-4-yl)benzyl)-1H-1,2,3-triazole-4-carboxamide] | 
16 | < 100 | ≤ 1 | Cc1cc(-c2ccncc2N2CCN(C(=O)/C=C/CN(C)C)CC2)ccc1CNC(=O)c1noc(C(C)(C)C)n1 [Example 61, (E)-5-(tert-butyl)-N-(4-(3-(4-(4-(dimethylamino)but-2-enoyl)piperazin-1-yl)pyridin-4-yl)-2-methylbenzyl)-1,2,4-oxadiazole-3-carboxamide] | 
17 | > 1000 | 1 to 10 | C=CC(=O)N(C)[C@H]1CCC(=O)N(c2cnccc2-c2ccc(CNC(=O)c3nnn(C(C)(C)C)n3)c(C)c2)C1 (single isomer, unassigned) [Example 53 Peak 1] | 
18 | 100 to 1000 | ≤ 1 | C=CC(=O)N(CC)[C@@H]1CCCN(c2cnccc2-c2ccc(CNC(=O)c3cn(C(C)(C)C)nn3)c(C)c2)C1 (stereo in doubt) [Example 16, 1-(tert-butyl)-N-(4-(3-(3-(N-ethylacrylamido)piperidin-1-yl)pyridin-4-yl)-2-methylbenzyl)-1H-1,2,3-triazole-4-carboxamide] | 
19 | < 100 | ≤ 1 | CN(C)C/C=C/C(=O)N1CCN(c2cnccc2-c2ccc(CNC(=O)c3noc(C(C)(C)C)n3)c(C(F)(F)F)c2)CC1 [Example 90, (E)-5-(tert-butyl)-N-(4-(3-(4-(4-(dimethylamino)but-2-enoyl)piperazin-1-yl)pyridin-4-yl)-2-(trifluoromethyl)benzyl)-1,2,4-oxadiazole-3-carboxamide] | 
20 | < 100 | ≤ 1 | C=CC(=O)N(C)C1CCCN(c2cnccc2-c2ccc(CNC(=O)c3nc(C(C)(C)C)no3)c(C)c2)C1 (stereo not shown) [Example 13, 3-(tert-butyl)-N-(2-methyl-4-(3-(3-(N-methylacrylamido)piperidin-1-yl)pyridin-4-yl)benzyl)-1,2,4-oxadiazole-5-carboxamide] | 
21 | 100 to 1000 | ≤ 1 | C=CC(=O)N(C)C1CCCN(c2cnccc2-c2ccc(CNC(=O)c3cc(C(C)(C)C)no3)c(C)c2)C1 (stereo not shown) [Example 46, 3-(tert-butyl)-N-(2-methyl-4-(3-(3-(N-methylacrylamido)piperidin-1-yl)pyridin-4-yl)benzyl)isoxazole-5-carboxamide] | 
22 | < 100 | ≤ 1 | C=CC(=O)N(C)[C@@H]1CCCN(c2cnccc2-c2ccc(CNC(=O)c3cn(C(C)(C)C)nn3)c(C)c2)C1 [Example 22, (R)-1-(tert-butyl)-N-(2-methyl-4-(3-(3-(N-methylacrylamido)piperidin-1-yl)pyridin-4-yl)benzyl)-1H-1,2,3-triazole-4-carboxamide] | 
23 | 100 to 1000 | ≤ 1 | C=CC(=O)N(C)C1CCCN(c2cnccc2-c2ccc(CNC(=O)c3coc(C(C)(C)C)n3)c(C)c2)C1 (stereo not shown) [Example 37, 2-(tert-butyl)-N-(2-methyl-4-(3-(3-(N-methylacrylamido)piperidin-1-yl)pyridin-4-yl)benzyl)oxazole-4-carboxamide] | 
